{"source": "patent US11723890B2", "about": "“Methods of treatment using an mTORC1 modulator” (Navitor Pharmaceuticals, Inc., priority 2019, dated 2023)", "key": {"rat": {"system": "rat", "test": "Single oral dose toxicology study in rat", "format": "in vivo", "protocol": "Nonclinical toxicology studies have been performed with compound A in the rat and cynomolgus monkey. Adverse effects were not observed after single oral doses of up to 500 mg/kg in rat and up to 2000 mg/kg in cynomolgus monkey."}, "[1]": {"test": "14-day Q3D oral toxicology study in cynomolgus monkeys", "conditions": "cynomolgus monkey, in vivo; cynomolgus monkeys; 160, 500 or 2000 mg/kg PO Q3D for 14 days (5 doses); read-out: no-observed-adverse-effect level (NOAEL)", "protocol": "(§1) In cynomolgus monkeys administered 160, 500, or 2000 mg/kg PO Q3D for 14 days (5 doses total), the NOAEL was 160 mg/kg.\n(§2) Precautions related to cardiovascular safety in this clinical study included frequent measurement of vital signs (e.g., blood pressure, pulse, and body temperature) and frequent electrocardiograms (ECGs)."}, "cynomolgus monkey [2]": {"system": "cynomolgus monkey", "test": "14-day Q3D oral toxicology study in cynomolgus monkeys", "conditions": "in vivo, po, 2000 mg/kg", "protocol": "as §1, §2"}, "cynomolgus monkey [3]": {"system": "cynomolgus monkey", "test": "Cardiovascular study in cynomolgus monkeys", "format": "in vivo"}, "[4]": {"system": "nonhuman primate model of anxiolytic/depressive behavioral responses", "test": "Nonhuman primate model of anxiolytic/depressive behavioral responses", "format": "in vivo", "conditions": "versus ketamine", "text": "(§3) Compound A [(S)-2-amino-5,5-difluoro-4,4-dimethylpentanoic acid] is a novel, orally bioavailable, specific, small molecule that activates mTORC1 pathway signaling in the brain, including those centers responsible for mood."}, "[5]": {"system": "N-methyl-D-aspartate (NMDA) receptor", "test": "Nonclinical NMDA receptor modulation / antagonist activity", "conditions": "nonclinical studies", "text": "as §3\nNMDA antagonists, in particular ketamine, are associated with mental status changes that have similarity to psychotic or dissociative symptoms seen in psychiatric disorders."}, "[6]": {"test": "Nonclinical studies, observation of seizures", "format": "in vivo"}, "healthy male volunteers": {"system": "healthy male volunteers", "test": "Example 3: safety and tolerability of two sequential doses in healthy male volunteers", "format": "in vivo, human", "conditions": "healthy male subjects; two doses 2400 mg 48 hours apart", "protocol": "Safety Endpoints: The safety endpoint was to assess the safety and tolerability of sequential doses of compound A vs. placebo in healthy male volunteers, as assessed by clinical laboratory parameters, physical, neurologic, and psychiatric examinations, vital signs, ECGs, EEGs, and adverse events.\nThis study was designed to evaluate the safety, tolerability, pharmacodynamics, and pharmacokinetics of two sequential doses of 2400 mg compound A (separated by 2 days), compared with placebo, in 24 healthy adult males (12 receiving compound A, 12 receiving placebo)."}, "healthy volunteers": {"system": "healthy volunteers", "test": "Example 4: blinded multiple ascending dose safety and tolerability study", "format": "in vivo, human", "conditions": "Cohort 1 (800 mg) and Cohort 2 (1600 mg) once daily for 7 days, compound A or placebo (6:2), preliminary", "protocol": "Navitor Pharmaceuticals, Inc. (Navitor) is currently conducting a study to assess the safety, tolerability, and PK of multiple ascending doses of compound A (400 mg, 800 mg, 1600 mg, 2400 mg, and potentially 3000 mg) versus matched placebo in healthy volunteers. This study also includes an assessment of CSF and clinical biomarkers, as well as a cognition test.\nThe study is planned for 4 cohorts and 1 additional optional cohort. Up to approximately 40 healthy volunteers will be randomly assigned to double-blind treatment. In the initial 4 cohorts, eight (8) subjects will be randomized (3:1; compound A:placebo) in each of the four dosage-level cohorts (800 mg, 1600 mg, 2400 mg, and 400 mg) administered as an oral solution. Within each cohort, six subjects will be randomized to receive compound A and two subjects will be randomized to receive placebo. Each subject randomized will receive compound A or placebo once daily for 7 days. Subjects will dose in the morning and will dose each day at the same time. For cohort 3 (2400 mg), each subject will return to the unit after a minimum 5-day washout to receive an additional single dose of compound A or placebo under fed conditions in Period 2. Assessments of safety, tolerability, and PK as well as exploratory biomarker and clinical measures will occur.\nCohort 1 (800 mg) and Cohort 2 (1600 mg) have been completed. […]"}, "subjects with TRD": {"system": "subjects with TRD", "test": "Example 1 Part B: safety and tolerability of a single dose in subjects with TRD", "conditions": "single oral 2400 mg", "excerpt": "In Part B of the study, approximately 32 subjects were randomly assigned to double-blind treatment in one cohort. […] The single-blind placebo lead-in treatment was intended to facilitate screening out placebo responders.\nThe study included standard safety and tolerability assessments—e.g., physical, neurological, and psychiatric examinations, vital signs, oral temperature, respiration rate, weight, 12-lead paper electrocardiograms (pECGs), dECGs, clinical laboratory tests, monitoring of adverse events (AEs) and concomitant medications, and, in Part A of the study, cardiovascular (CV) telemetry and safety EEGs.\nPlacebo was administered orally as a solution."}}, "note": "Entries after “also recorded” stand apart in the source; their conditions may differ.", "data": [{"compound": "CC(C)(C[C@H](N)C(=O)O)C(F)F", "note": "[Compound A, (S)-2-amino-5,5-difluoro-4,4-dimethylpentanoic acid]", "values": [{"measurement": "finding after single oral dose", "setting": "rat; in vivo, po, 2000 mg/kg", "value": "ataxia was noted"}, {"measurement": "time by which ataxia resolved", "setting": "rat; in vivo, po, 2000 mg/kg", "value": "≤ 24", "unit": "h"}, {"measurement": "single oral dose up to which adverse effects were not observed", "setting": "rat; single oral dose", "value": "up to 500 mg/kg"}, {"measurement": "NOAEL at 14 days", "setting": "[1]", "value": 160, "unit": "mg/kg"}, {"measurement": "adverse effects at 2000 mg/kg", "setting": "cynomolgus monkey [2]", "value": "dehydration in one animal, likely secondary to vomiting, and increased aspartate aminotransferase (AST) in one animal"}, {"measurement": "cardiovascular findings at ≥160 mg/kg", "setting": "cynomolgus monkey [3]; single oral dose ≥160 mg/kg", "value": "decreased heart rate and body temperature"}, {"measurement": "cardiovascular finding at higher dosage levels", "setting": "cynomolgus monkey [3]; single oral dose ≥500 mg/kg", "value": "Increased blood pressure"}, {"measurement": "pharmacological activity", "setting": "[4]", "value": "comparable to that of ketamine"}, {"measurement": "NMDA receptor modulation / antagonist activity", "setting": "[5]", "value": "not associated with N-methyl-D-aspartate (NMDA) receptor modulation; also recorded: did not demonstrate NMDA antagonist activity"}, {"measurement": "seizures", "setting": "[6]", "value": "seizures have not been observed"}, {"measurement": "deaths, SAEs, discontinuations due to TEAEs, Grade 2 or 3 TEAEs", "setting": "healthy male volunteers", "value": "no deaths or other SAEs, discontinuations due to TEAEs, or moderate (Grade 2) or severe (Grade 3) TEAEs"}, {"measurement": "dissociative effects", "setting": "healthy male volunteers", "value": "No dissociative effects were reported"}, {"measurement": "incidence of TEAEs", "setting": "healthy male volunteers", "value": 8.3, "unit": "%"}, {"measurement": "incidence of drug-related TEAEs", "setting": "healthy male volunteers", "value": 0, "unit": "%"}, {"measurement": "proconvulsant activity on safety EEGs", "setting": "healthy male volunteers", "value": "no evidence"}, {"measurement": "safety and tolerability", "setting": "healthy male volunteers", "value": "generally safe and well tolerated"}, {"measurement": "severity of TEAEs", "setting": "healthy male volunteers", "value": "mild (Grade 1)"}, {"measurement": "labs, vital signs or ECG", "setting": "healthy volunteers", "value": "No clinically significant abnormalities were observed"}, {"measurement": "severity of AEs", "setting": "healthy volunteers", "value": "mild"}, {"measurement": "Vitals, labs, and ECG findings", "setting": "subjects with TRD", "value": "unremarkable"}, {"measurement": "safety and tolerability", "setting": "subjects with TRD", "value": "well tolerated, with no serious adverse events, and no discontinuations due to adverse events"}, {"measurement": "severity of adverse events", "setting": "subjects with TRD", "value": "mild-moderate"}, {"measurement": "Deaths", "setting": "subjects with TRD; n = 16", "value": 0}, {"measurement": "Discontinuations due to AE", "setting": "subjects with TRD; n = 16", "value": 0}, {"measurement": "Serious AEs", "setting": "subjects with TRD; n = 16", "value": 0}, {"measurement": "Subjects with at least 1 AE", "setting": "subjects with TRD; n = 16", "value": "11 (68.8)"}, {"measurement": "TEAE: Back pain", "setting": "subjects with TRD; n = 16", "value": 1}, {"measurement": "TEAE: Dizziness", "setting": "subjects with TRD; n = 16", "value": 2}, {"measurement": "TEAE: Dizziness postural", "setting": "subjects with TRD; n = 16", "value": 1}, {"measurement": "TEAE: Dry mouth", "setting": "subjects with TRD; n = 16", "value": 1}, {"measurement": "TEAE: Dyspepsia", "setting": "subjects with TRD; n = 16", "value": 1}, {"measurement": "TEAE: Feeling abnormal", "setting": "subjects with TRD; n = 16", "value": 1}, {"measurement": "TEAE: Flatulence", "setting": "subjects with TRD; n = 16", "value": 1}, {"measurement": "TEAE: Frequent bowel movements", "setting": "subjects with TRD; n = 16", "value": 1}, {"measurement": "TEAE: Headache", "setting": "subjects with TRD; n = 16", "value": 2}, {"measurement": "TEAE: Hypertension", "setting": "subjects with TRD; n = 16", "value": 1}, {"measurement": "TEAE: Hyperthyroidism", "setting": "subjects with TRD; n = 16", "value": 1}, {"measurement": "TEAE: Myalgia", "setting": "subjects with TRD; n = 16", "value": 1}, {"measurement": "TEAE: Nausea", "setting": "subjects with TRD; n = 16", "value": 1}, {"measurement": "TEAE: Nipple pain", "setting": "subjects with TRD; n = 16", "value": 1}, {"measurement": "TEAE: Orthostatic hypotension", "setting": "subjects with TRD; n = 16", "value": 1}, {"measurement": "TEAE: Sensory disturbance", "setting": "subjects with TRD; n = 16", "value": 1}, {"measurement": "TEAE: Skin abrasion", "setting": "subjects with TRD; n = 16", "value": 1}, {"measurement": "TEAE: Somnolence", "setting": "subjects with TRD; n = 16", "value": 4}, {"measurement": "TEAE: T-wave inversion", "setting": "subjects with TRD; n = 16", "value": 1}, {"measurement": "Total number of TEAEs", "setting": "subjects with TRD; n = 16", "value": 24}, {"measurement": "BPRS+ and CADSS scores", "setting": "subjects with TRD; vs placebo", "value": "comparable as between the treatment groups"}]}]}
